Key:
HIV-1 gene expression = HIV-1 gene expression in CD4+ T-cell line 24ST1NLESG, p24CA ELISA; assay type: cell-based, HIV-1 (pNL4-3); conditions: PMA induced, 24 h, p24CA ELISA of supernatants
Experimental: Drug/compounds were tested for effects on HIV-1 gene expression using inducible Tet-ON HIV-1 cell lines [HeLa rtTA-HIV-ΔMls or rtTA-HIV(Gag-GFP)] containing a HIV-1 (LAI) provirus activatable by Dox or tetracycline transactivator (tTA)[69]. The rtTA-HIV-ΔMls provirus was modified and used as previously reported[9]–[11],[70]. The rtTA-HIV(Gag-GFP) provirus was generated by deletion of the PR and RT coding regions within pol and insertion of GFP to the 3′ of gag, creating GFP fused to the C-terminal of Gag. After 4 h of drug/compound treatment, HIV-1 gene expression was activated with Dox (2 μg/mL) or tTA (described below). Equal concentrations of DMSO were present in each experiment. After ~20 h, cells and media were harvested to monitor the effects of drug/compound treatments as described below. HIV-1 gene expression was quantified via p24^CA ELISA or monitoring Gag-GFP fluorescence in cells as described below. In parallel, cell viability of treatments were assessed by XTT assay (Sigma-Aldrich, #TOX2). […]
treatment of 24ST1NLESG cells (n ≥ 4, mean, s.e.m.). […] Cell lysates were analyzed by western blot with antibodies specific for (c) HIV-1 structural protein, Gag, and (d) viral regulatory factor, Tat. […]

HIV-1 Tat (p16/p14) = assay: Immunoblot of HIV-1 Tat (p16/p14) in HeLa rtTA-HIV-ΔMls cells; assay type: cell-based; conditions: ~IC80 of CS, relative to DMSO (+Dox)
Experimental: Figure 3 CSs reduce expression of essential HIV-1 structural and regulatory proteins. HeLa rtTA-HIV-ΔMls cells were treated with ~IC80s of CSs (per Methods), 100 nM of RIDK-21 or -27, or DMSO for 4 h prior to Dox induction for 20 h as indicated. Cell extracts were analyzed by immunoblot of (a) HIV-1 structural proteins: Env (gp160/gp120) and Gag (p41/p24), and (b–d) viral regulatory factors: Rev (p19, b) and Tat (p16/p14, c,d). (d) Graph quantitating Tat expression. Results from (a–d) are from n ≥ 3, mean, s.e.m. […] (a and d) Lanes were cropped and assembled from the same blot per box from Supplementary Figure S4a,b and c, respectively.
To monitor HIV-1 gene expression or replication, Gag release into cell culture supernatants were assayed by ELISA using a p24^CA antigen capture assay kit (AIDS & Cancer Virus Program, NCI-Frederick, Frederick, MD USA). […] For analysis of HIV-1 and SR protein expression (and phosphorylation states with calf intestinal alkaline phosphatase treatments), cells were lysed and analyzed by western blot as previously outlined. […] Activation of MAPKs was determined by western blot quantitation and calculation of phospho/total protein levels. […] Stain-Free™ gels were casted and proteins were detected as described in 10% TGX-Stain-Free FastCast Acrylamide Kit from Bio-Rad (#161-0183). […]

With C[C@H]1O[C@@H](O[C@H]2[C@@H](O)C[C@H](O[C@H]3[C@@H](O)C[C@H](O[C@H]4CC[C@@]5(C)[C@H](CC[C@@H]6[C@@H]5CC[C@]5(C)[C@@H](C7=CC(=O)OC7)CC[C@]65O)C4)O[C@@H]3C)O[C@@H]2C)C[C@H](O)[C@@H]1O [Digitoxin] the “HIV-1 gene expression in 24ST1NLESG cells” value (HIV-1 gene expression) was “Dose-dependent inhibition”.
For C[C@]12CC[C@H](O)C[C@H]1CC[C@@H]1[C@@H]2CC[C@]2(C)[C@@H](C3=CC(=O)OC3)CC[C@]12O [Digitoxigenin], the “p16 Tat expression” value (HIV-1 Tat (p16/p14)) was 57 % of control.

Reference: publication PMC5770468, “Cardiac glycoside/aglycones inhibit HIV-1 gene expression by a mechanism requiring MEK1/2-ERK1/2 signaling” (Scientific Reports, 2018)
